The subject of assay [1] is MIA-induced osteoarthritis pain. The assay can be described thus: Rat model of mono-iodoacetic acid (MIA) induced osteoarthritis pain, hind limb grip force. It is filed as in vivo. The conditions noted are these: mean percent effect. On the procedure: Members of the TrkA inhibitors described above were tested and found effective in reducing osteoarthritis pain. The compounds tested were assessed in an in vivo model well known to those skilled in the art, the rat model of mono-iodoacetic acid induced osteoarthritis pain. A general review of various models of pain can be found in Joshi and Honore, Expert Opinion in Drug Discovery (2004) 1, pp. 323-334, and in the book ‘Drug Discovery and Evaluation, 2nd edition (H. Gerhard Vogel, editor; Springer-Verlag, New York, 2002; pp. 702-706). Pain behavior was assessed by measurement of hind limb grip force (GF) in adult osteoarthritic rats. Male Sprague Dawley rats, generally weighing 125-150 g, were injected in the unilateral knee join with a single intra-articular injection of sodium monoiodoacetate (MIA). Rats were tested at 21-28 days following MIA injection. A behavioral measure of activity-induced pain was carried out. Measurements of the peak hind limb grip force were conducted by recording the maximum compressive force (CFmax), in grams of force, exerted on a hind limb strain gauge setup, in a commercially available grip force measurement system (Columbus Instruments, Columbus, Ohio). During testing, each rat was gently restrained by grasping it around its rib cage and then allowed to grasp the wire mesh frame attached to the strain gauge. The experimenter then moved the animal in a rostral-to-caudal direction until the grip was broken. Each rat was sequentially tested twice at an approximately 2-3 minute interval to obtain a raw mean grip force (CFmax). This raw mean grip force data was in turn converted to a maximum hindlimb cumulative compressive force (CFmax), as the grams of force/kg of body weight, for each animal. For evaluating the compound effects, the hind limb grip force testing in the MIA-treated rats was conducted generally 30-60 minutes after dosing with the test compound. A group of age-matched naïve (not injected with MIA) animals was added as a comparator to the drug-dosed groups. The vehicle control response for each group of MIA-treated animals was defined as the 0% response (0% effect), whereas the naïve control group was defined as the normal response and as 100% effect. The % effect=(Treatment CFmax−Vehicle CFmax)[…]]×100). Higher % effect numbers indicate increased relief from the pain in the model, with 100% indicating a return to the level of response seen in normal (non-osteoarthritic) animals. All experiments evaluating drug effects in this model were conducted in a randomized blinded fashion. Male Sprague Dawley rats (generally 250-300 g body weight at the time of testing) obtained from Charles River Laboratories (Wilmington, Mass.) were used for all experiments, unless indicated otherwise. The animals were housed in Association for Assessment and Accreditation of Laboratory Animal Care (AAALAC) approved facilities at AbbVie in a temperature-regulated environment under a controlled 12-hour light-dark cycle, with lights on at 6:00 a.m. Food and water were available ad libitum at all times except during testing. All testing was done following procedures outlined in protocols approved by AbbVie Institutional Animal Care and Use Committee.

A further assay has as its target TrkA (Homo sapiens (Human), UniProt P04629). The assay can be described thus: TrkA kinase HTRF enzyme inhibition assay. It is filed as biochemical. As to conditions: TrkA pre-incubated with 200 μM ATP. In a few lines:
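TrkA (2-10 nM) pre-activated 20 min with 200 μM ATP in HEPES pH 7.4/Mg/Mn buffer, compound added for 10 min, then biotinylated LCK-analog peptide (125 nM) for 1 h at ambient temperature. HTRF phosphotyrosine detection (665/620 ratio); duplicate half-log dilutions, IC50 from initial-rate inhibition via equation 1.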
A general note: TR-FRET usually uses a lanthanide donor and a delayed reading to cut background.

Marks after values point to notes of the source that are not given here.

Sequence of TrkA (P04629 33-796): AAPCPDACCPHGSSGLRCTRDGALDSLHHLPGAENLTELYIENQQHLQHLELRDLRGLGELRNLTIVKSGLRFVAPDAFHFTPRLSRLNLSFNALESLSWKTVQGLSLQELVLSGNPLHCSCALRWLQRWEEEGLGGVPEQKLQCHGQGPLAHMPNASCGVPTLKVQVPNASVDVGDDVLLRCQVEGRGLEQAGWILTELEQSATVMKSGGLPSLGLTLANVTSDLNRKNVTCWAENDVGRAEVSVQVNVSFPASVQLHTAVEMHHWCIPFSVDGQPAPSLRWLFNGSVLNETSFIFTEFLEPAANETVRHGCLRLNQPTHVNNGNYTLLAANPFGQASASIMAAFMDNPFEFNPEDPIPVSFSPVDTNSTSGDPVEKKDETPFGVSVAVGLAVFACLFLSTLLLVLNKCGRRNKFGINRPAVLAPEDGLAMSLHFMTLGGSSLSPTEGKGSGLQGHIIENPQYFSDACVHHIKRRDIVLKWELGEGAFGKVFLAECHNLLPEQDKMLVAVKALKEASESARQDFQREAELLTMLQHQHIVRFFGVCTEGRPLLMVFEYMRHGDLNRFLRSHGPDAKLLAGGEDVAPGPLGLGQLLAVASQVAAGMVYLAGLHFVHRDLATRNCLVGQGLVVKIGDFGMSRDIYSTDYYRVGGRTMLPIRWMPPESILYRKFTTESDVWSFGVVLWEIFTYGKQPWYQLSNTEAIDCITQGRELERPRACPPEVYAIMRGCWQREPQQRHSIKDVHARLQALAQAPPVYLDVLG

In general, IC50 refers to the concentration that gives 50% inhibition. A lower IC50 goes with inhibition by little substance. Consider `COc1cc(N2CCN(C(C)=O)CC2)ccc1NC(=O)c1coc2c1C(=O)NC(C)(C)C2` [Example 126, N-[4-(4-acetylpiperazin-1-yl)-2-methoxyphenyl]-6,6-dimethyl-4-oxo-4,5,6,7-tetrahydrofuro[3,2-c]pyridine-3-carboxamide], for which, in assay [1] (100 mg/kg p.o., tested 3 hours post dose), the “% Effect (hind limb grip force, MIA model)” value turned out to be 47% **. Also, the IC50 against TrkA stood at 25 nM.

As to `COc1nc(N2CCN(C(=O)N3CCOCC3)CC2)ccc1NC(=O)c1coc2c1C(=O)NC(C)(C)C2` [Example 121, N-{2-methoxy-6-[4-(morpholin-4-ylcarbonyl)piperazin-1-yl]pyridin-3-yl}-6,6-dimethyl-4-oxo-4,5,6,7-tetrahydrofuro[3,2-c]pyridine-3-carboxamide], the “% Effect (hind limb grip force, MIA model)” value in assay [1] (30 mg/kg p.o., tested 30-60 minutes postdosing) was found to be 74% ***. On TrkA, this compound yielded an IC50 of 18.1 nM.

Source of the values: patent US9777020B2, “Furo-3-carboxamide derivatives and methods of use” (AbbVie Inc., priority 2014, dated 2017).
